# Source: US4985430A, “9-acylamino-tetrahydroacridine derivatives and memory enhancing agent containing said derivative as active ingredient” (priority 1987, dated 1991)
# Where a name gives a salt, the structure may show the parent alone.
# Assays:
# [1] = tested on: Na^+ dependent high-affinity choline uptake (HACU) of AF64A-treated rat hippocampus; experiment: Na+ dependent high-affinity choline uptake (HACU) in crude synaptosomal fraction of AF64A-treated rat hippocampus; type: biochemical; details: for Improved ratio (% based on Control): HACU, AF64A-treated rat hippocampus synaptosomal fraction, [3H]choline 1 μM, 37° C.
# Description: Effects on Na^+ dependent high-affinity choline uptake (HACU) of AF64A-treated rat hippocampus
# According to the method of Fischer et al. [J. Pharm. Exper. Ther., Vol. 222, p. 140 (1982)], AF64A was prepared from AF64. AF64A (1.5 nmole/1.5 μl/side) was injected into rat's both ventricles. After one week, subjecting decapitation, only hippocampus was taken out. It was homogenized with 0.32M of sucrose, centrifuged for 10 minutes at 1000 g, and the supernatant was further centrifuged for 20 minutes at 20,000 g to give crude synaptosomal fraction. The crude synaptosomal fraction and medicament were subjected to incubation at 37° C. for 30 minutes, and after addition of [^3 H]choline (1 μM), they were further subjected to incubation at 37° C. for 10 minutes.
# As a control, the crude synaptosomal fraction was subjected to incubation at 37° C. for 30 minutes, and after addition of choline [^3 H]choline (1 μM), it was further subjected to incubation at 37° C. for 10 minutes to use. The reaction was stopped by subjecting filtration on Whatman GF/B filter. Radioactivity on the filter was measured by a liquid scintillation counter and it was made as the HACU amount. An amount of protein was determined according to the method of Bradford. [Analytical Biochemistry, Vol. 72, p. 248 (1976)].
# [2] = Acute toxicity test, oral, mouse; details: in vivo
# Description: The compound of the present invention was orally administered to a mouse and acute toxicity value was measured.
# [3] = tested on: human Alzheimer's disease; details: in combination with use of lecithin; Summers, N. Engl. J. Med. 315, 1241 (1986); cited from earlier work
Compound,Improved ratio (% based on Control) ([1]; 10^-4 M),Improved ratio (% based on Control) ([1]; 10^-5 M),Improved ratio (% based on Control) ([1]; 10^-6 M),Improved ratio (% based on Control) ([1]; 10^-7 M),Improved ratio (% based on Control) ([1]; 10^-8 M),"high affinity-choline uptake in hippocampus synaptosome of AF64A-injected rat (activation, in words) ([1]; AF64A injected in cerebral ventricles)",LD50 [2],effectiveness in human Alzheimer's disease [3]
"Nc1c2c(nc3ccccc13)CCCC2 [9-Amino-1,2,3,4-tetrahydroacridine, reference compound]",-73%,-11%,8%,5%,2%,could not be found out,67 mg/kg,effective to human Alzheimer's disease
"CCCC(=O)Nc1c2c(nc3ccccc13)CCCC2 [Example 1, N-(1,2,3,4-tetrahydroacridin-9-yl)butanamide]",15%,31%,28%,13%,20%,,1000 mg/kg,
CC(C)C(=O)Nc1c2c(nc3ccccc13)CCCC2 [Example 3],21%,19%,11%,16%,13%,,,
CCCCC(=O)Nc1c2c(nc3ccccc13)CCCC2 [Example 4],5%,29%,3%,5%,4%,,,
"O=C(CN1CCCC1=O)Nc1c2c(nc3ccccc13)CCCC2 [Example 14, 2-(2-oxopyrrolidin-1-yl)-N-(1,2,3,4-tetrahydroacidin-9-yl)acetamide hydrochloride]",21%,17%,16%,19%,12%,,2300 mg/kg,
Cc1ccc2nc3c(c(NC(=O)CN4CCCC4=O)c2c1)CCCC3 [Example 15],,-2%,28%,-5%,3%,,,
CN1CCc2nc3ccccc3c(NC(=O)CN3CCCC3=O)c2C1 [Example 20],28%,9%,23%,21%,10%,,,
O=C(CN1CCCC1=O)Nc1c2c(nc3ccccc13)CCN(Cc1ccccc1)C2 [Example 21],18%,32%,19%,11%,10%,,,
O=C(CN1CCCC1=O)Nc1c2c(nc3ccccc13)C1CCN2CC1 [Example 22],4%,30%,10%,16%,13%,,,
O=C(CN1CCCC1=O)Nc1c2c(nc3sccc13)CCCC2 [Example 27],9%,41%,25%,19%,5%,,,
O=C(CN1C(=O)CCC1=O)Nc1c2c(nc3ccccc13)CCCC2 [Example 35],26%,27%,15%,26%,2%,,,
O=C1CN(CC(=O)Nc2c3c(nc4ccccc24)CCCC3)C(=O)CN1 [Example 37],39%,34%,27%,9%,14%,,2100 mg/kg,
"CNCC(=O)Nc1c2c(nc3ccccc13)CCCC2 [Example 39, 9-[(2-methylamino)acetyl-amino]-1,2,3,4-tetrahydroacridine]",-11%,24%,16%,8%,5%,,,
CCOC(=O)CNCC(=O)Nc1c2c(nc3ccccc13)CCCC2 [Example 40],3%,20%,14%,18%,8%,,,
O=C(Cn1ccnc1)Nc1c2c(nc3ccccc13)CCCC2 [Example 41],20%,46%,18%,5%,5%,,,
CC(=O)N(C)CC(=O)Nc1c2c(nc3ccccc13)CCCC2 [Example 42],11%,29%,30%,14%,11%,,,
NC(=O)NCC(=O)Nc1c2c(nc3ccccc13)CCCC2 [Example 46],27%,13%,28%,11%,-8%,,,
CNC(=O)N1CCc2nc3ccccc3c(NC(=O)CN3CCCC3=O)c2C1 [Example 50],,27%,35%,20%,4%,,,
"CCCC(=O)Nc1c2c(nc3ccccc13)CCC(O)C2 (stereo not drawn) [Example 53, N-(1,2,3,4-tetrahydroacridin-2-ol-9-yl)butanamide]",14%,15%,23%,18%,14%,,,
